Measured values as given in ChEMBL document CHEMBL5029153, “Structural Insights into Notum Covalent Inhibition” (J Med Chem, 2021).

Assays:
[1] = target: T1, Palmitoleoyl-protein carboxylesterase NOTUM (Homo sapiens, UniProt Q6P988); assay: Binding affinity to glycosylated Notum 1 (unknown origin) assessed as change in melting temperature at 30 uM by SYPRO orange dye based thermal shift assay
T1 sequence (Q6P988 whole entry): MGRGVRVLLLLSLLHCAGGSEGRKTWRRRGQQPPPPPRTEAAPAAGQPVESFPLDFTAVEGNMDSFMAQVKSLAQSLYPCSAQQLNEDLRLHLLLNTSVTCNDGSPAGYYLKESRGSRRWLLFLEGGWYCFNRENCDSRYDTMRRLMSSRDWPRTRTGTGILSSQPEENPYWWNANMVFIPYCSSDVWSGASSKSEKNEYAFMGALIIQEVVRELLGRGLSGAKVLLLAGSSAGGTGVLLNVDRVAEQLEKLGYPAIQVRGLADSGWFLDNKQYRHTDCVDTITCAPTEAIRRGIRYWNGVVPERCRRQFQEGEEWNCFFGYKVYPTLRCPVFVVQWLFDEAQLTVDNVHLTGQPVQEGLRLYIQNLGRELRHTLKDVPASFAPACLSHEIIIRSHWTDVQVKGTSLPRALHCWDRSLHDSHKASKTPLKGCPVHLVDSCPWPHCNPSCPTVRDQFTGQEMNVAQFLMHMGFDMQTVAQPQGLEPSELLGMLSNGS

[2] = target: T1, Palmitoleoyl-protein carboxylesterase NOTUM; assay: Binding affinity to glycosylated Notum 1 (unknown origin) assessed as maximum change in melting temperature at 1 mM by SYPRO orange dye based thermal shift assay; settings: 1000 µM
[3] = target: T1, Palmitoleoyl-protein carboxylesterase NOTUM; assay: Inhibition of Notum 1 (unknown origin) expressed in HEK293 cells harbouring TCF/LEF luciferase reporter gene assessed as modulation of Wnt/beta-catenin signalling pathway preincubated with recombinant Wnt-3A for 1 hr followed by addition to reporter cell plate incubated overnight by luminescence based microplate reader analysis
[4] = target: T1, Palmitoleoyl-protein carboxylesterase NOTUM; assay: Binding affinity to glycosylated Notum 1 (unknown origin) assessed as change in melting temperature at 8 uM by SYPRO orange dye based thermal shift assay

deltaTm [1] [°C]	deltaTm [2] [°C]	EC50 [3] [nM]	deltaTm [4] [°C]	Compound
1	2.5	–	–	O=C(O)CCC(=O)N1CCc2ccccc21
–	–	300	–	O=C(CCC(=O)N1CCc2ccccc21)OCC(F)F
5	10	–	2	COC(=O)CCC(=O)N1CCc2ccccc21
